≈ marks a conversion by molar mass, not a printed value.
Test system: WI-38 VA13
Assay: Effective concentration required to cause cytotoxicity to tumorigenic cell line WI-38 VA-13 subline 2RA
Format: functional, cell-based
Conditions: Homo sapiens

| SMILES | EC50 |
| --- | --- |
| COc1ccccc1C(=O)c1sc2nc(-c3cccs3)ccc2c1N | 0.059 µg/mL (≈ 0.161 µM) |
| COc1cccc(C(=O)c2sc3nc(-c4cccs4)ccc3c2N)c1 | 0.03 µg/mL (≈ 0.0819 µM) |
| Nc1c(C(=O)c2cccc(F)c2)sc2nc(-c3cccs3)ccc12 | 0.025 µg/mL (≈ 0.0705 µM) |
| CNc1c(C(=O)c2ccccc2)sc2nc(-c3cccs3)ccc12 | 0.42 µg/mL (≈ 1.2 µM) |
| Nc1c(C(=O)c2ccccc2)sc2nc(-c3cccs3)ccc12 | 0.09 µg/mL (≈ 0.268 µM) |
| Nc1c(C(=O)c2cccc([N+](=O)[O-])c2)sc2nc(-c3cccs3)ccc12 | 0.15 µg/mL (≈ 0.393 µM) |
| COc1ccc(OC)c(C(=O)c2sc3nc(-c4cccs4)ccc3c2N)c1 | 0.079 µg/mL (≈ 0.199 µM) |
| Nc1c(C(=O)c2cccc(Br)c2)sc2nc(-c3cccs3)ccc12 | 0.5 µg/mL (≈ 1.2 µM) |
| Nc1c(C(=O)c2ccc(F)c(F)c2)sc2nc(-c3cccs3)ccc12 | > 4 µg/mL |
| CN(C)c1c(C(=O)c2ccccc2)sc2nc(-c3cccs3)ccc12 | > 4 µg/mL |
| CCOC(=O)c1sc2nc(-c3cccs3)ccc2c1N | > 4 µg/mL |
| CC(C)(C)C(=O)c1sc2nc(-c3cccs3)ccc2c1N | 0.57 µg/mL (≈ 1.8 µM) |
| CCC(=O)c1sc2nc(-c3cccs3)ccc2c1N | 0.89 µg/mL (≈ 3.09 µM) |
| COc1ccc(C(=O)c2sc3nc(-c4cccs4)ccc3c2N)c(OC)c1 | 0.52 µg/mL (≈ 1.31 µM) |
| Nc1c(C(=O)c2ccc(F)cc2)sc2nc(-c3cccs3)ccc12 | 1.8 µg/mL (≈ 5.08 µM) |
| CCOC(=O)c1oc2cc(-c3ccccc3)cc(OC)c2c1C | > 4 µg/mL |
| CC(=O)c1sc2nc(-c3cccs3)ccc2c1N | 2.7 µg/mL (≈ 9.84 µM) |
| COc1ccc(C(=O)c2sc3nc(-c4cccs4)ccc3c2N)cc1 | 0.77 µg/mL (≈ 2.1 µM) |
| Nc1c(C(=O)c2ccc(Br)cc2)sc2nc(-c3cccs3)ccc12 | 2.8 µg/mL (≈ 6.74 µM) |
| Nc1c(C(=O)c2ccc(F)cc2F)sc2nc(-c3cccs3)ccc12 | 2.3 µg/mL (≈ 6.18 µM) |

— ChEMBL document CHEMBL1147459, “Thienopyridine and benzofuran derivatives as potent anti-tumor agents possessing different structure-activity relationships” (Bioorg Med Chem Lett, 2004)
